Measurements published in patent publication EP3539969A1, “NOVEL PHOTO-INITIATORS AND THEIR APPLICATION” (ETH Zurich, priority 2018, dated 2019).
Structures can show the parent of a compound that is named as a salt. Where two headings read alike, the source gives them in different places.

Key:
[1] = 25°C
Procedure: To determine the solubility, small samples of the respective substance were exactly weighed to Eppendorf tubes. Upon shanking at an Eppendorf thermomixer (25 C @ 1400 rpm), water is added until the whole samples was homogenously dissolved.

[2] = for ε405: λ = 405 nm
Procedure: To compare photobleaching, 0.25 mM solutions of ^PhBAPO-ONBu4 and ^MesBAPO-ONBu4 were prepared in THF. UV-Vis spectra were recorded in 2 mm quartz cuvettes prior and after 15 min of irradiation with 265 nm (Lumos 43 LED reactor, Atlas Photonics). Spectra have been smoothed (adjacent averaging, points of window: 5).

[3] = for irradiation time to complete photolysis: 405 nm LED, 80 mM in CD3CN, diphenyl disulfide (3 eq.)
Text: The photolysis has been followed by ^31P NMR. […] The results are further illustrated by Fig. 2

[4] = for integral rel. to TPP / integral rel. to t = 0: protected from light
Procedure: To determine the stability of ^PhBAPO-ONBu4 against hydrolysis, 10 mg were dissolved in 0.6 mL of D2O in a NMR tube protected from light. […] Table 1: Integrals of 31P NMR signals of PhBAPO-ONBu4 relative to TPP as external standard for integration over time.

Cc1cc(C)c(C(=O)P(=O)(O)C(=O)c2c(C)cc(C)cc2C)c(C)c1 [^MesBAPO-ONBu4, bis(mesitoyl)phosphinic acid tetrabutylammonium salt, reference compound]
solubility in water [1]: 3.5 mg/mL
λmax (longest wave absorption) ([2]; THF): 373 nm
ε ([2]; λ = 244 nm): 5935±72 Lmol^-1cm^-1
ε ([2]; λ = 265 nm (LED wavelength)): 3368±88 Lmol^-1cm^-1
ε ([2]; λ = 359 nm): 211±3 Lmol^-1cm^-1
ε ([2]; λ = 365 nm (LED wavelength)): 216±4 Lmol^-1cm^-1
ε405 [2]: 64 Lmol^-1cm^-1
irradiation time to complete photolysis [3]: over 12 min

O=C(c1ccccc1)P(=O)(O)C(=O)c1ccccc1 [^PhBAPO-ONBu4, bis(benzoyl)phosphinic acid tetrabutylammonium salt]
solubility in water [1]: 17.2 mg/mL
half-life [4]: 51.4 days
half time ([4]; hydrolysis in D2O): 51 days
t1 (exponential fitting of the decay, y = e^-x/t1) ([4]; hydrolysis in D2O, over 84 days): 74.2 ± 1.8 days
integral rel. to TPP ([4]; t = 0 d, 10 mg in 0.6 mL D2O): 4.24
integral rel. to t = 0 ([4]; t = 0 d, D2O): 1
integral rel. to TPP ([4]; t = 4 d, D2O): 4.02
integral rel. to t = 0 ([4]; t = 4 d, D2O): 0.9481
integral rel. to TPP ([4]; t = 5 d, D2O): 4.02
integral rel. to t = 0 ([4]; t = 5 d, D2O): 0.9481
integral rel. to TPP ([4]; t = 14 d, D2O): 3.46
integral rel. to t = 0 ([4]; t = 14 d, D2O): 0.816
integral rel. to TPP ([4]; t = 29 d, D2O): 2.98
integral rel. to t = 0 ([4]; t = 29 d, D2O): 0.7028
integral rel. to TPP ([4]; t = 56 d, D2O): 1.98
integral rel. to t = 0 ([4]; t = 56 d, D2O): 0.467
integral rel. to TPP ([4]; t = 84 d, D2O): 1.31
integral rel. to t = 0 ([4]; t = 84 d, D2O): 0.309
photobleaching ([2]; 0.25 mM in THF, 15 min irradiation with 265 nm): only colourless photoproducts are formed
red shift of λmax compared to ^MesBAPO-ONBu4 ([2]; THF): about 20 nm
λmax (longest wave absorption) ([2]; THF): 394 nm
ε ([2]; λ = 235 nm): 16957±1372 Lmol^-1cm^-1
ε ([2]; λ = 265 nm (LED wavelength)): 3424±88 Lmol^-1cm^-1
ε ([2]; λ = 365 nm (LED wavelength)): 106±2 Lmol^-1cm^-1
ε ([2]; λ = 394 nm): 171±4 Lmol^-1cm^-1
ε405 [2]: 154 Lmol^-1cm^-1
irradiation time to complete photolysis [3]: ≤ 6 min
photoactivity relative to ^MesBAPO-ONBu4 ([3]; 405 nm irradiation): at least twice as photoactive as ^MesBAPO-ONBu4
